# Test results published in article PMC11504268 (Antibiotics, 2024).
# Read-outs that look alike come from different tables or passages of the source.
# Columns and labels:
# [1] = Procedure: The estimation of parameters, including fixed and random effects, was conducted using first-order conditional estimation with the interaction method. This enables modelling of the interaction between the IIV in PK parameters and the residual variability (RV) in measured concentrations. […] Each model adhered to first-order kinetics, except the zero-order infusion processes. Each PK parameter in the model was described by the equation θi = θ × exp (ηi), where θ denotes the typical value of the PK parameter, θi is the individual PK parameter value for each participant, and ηi is a random variable encapsulating IIV. We hypothesised that IIV is normally distributed, with a mean of zero and variance ω^2. RV was modelled as normally distributed with a mean of zero and a variance σ^2. Additionally, we evaluated additive, proportional, and combined additive-proportional error models. The methods used to select and validate models encompassed several criteria: variations in NONMEM objective function values (OFVs), the accuracy of parameter estimates as reflected by relative standard errors, goodness-of-fit plots, VPC, and bootstrap evaluations. […] Model validation processes included the creation of conditional weighted residual plots versus time and against population predictions (PRED), in addition to comparisons between observed data and both PRED and individual predictions. […] The variability in the final model predictions was analysed using the median and 95% confidence intervals from 2000 bootstrap replicates. We identified significant covariates influencing pharmacokinetic (PK) parameters through a process of stepwise forward selection and backward elimination, with inclusion thresholds of p < 0.01 (ΔOFV < −6.635) and exclusion thresholds of p < 0.001 (ΔOFV > 10.83) for single degree-of-freedom tests. Covariates were assessed for both their statistical and clinical relevance, taking into account demographic factors (such as gender, age, weight, height, body mass index, and body surface area) and biochemical markers (including serum protein, albumin, creatinine, and cystatin C levels). […] We utilised Perl-speaks-NONMEM (PSN, version 5.3.1, [https://uupharmacometrics.github.io/PsN], accessed on 13 April 2023) for covariate identification, VPC execution, and nonparametric bootstrapping to evaluate model robustness. Data analysis and graphical outputs were conducted using the R programming environment (version 4.4.0, [www.rproject.org], Vienna, Austria, accessed on 6 June 2024).
# Remark: listed apart in the source
# [2] = cited from earlier work; for average AUC: critically ill patients, daily dose 30 mg/kg
# [3] = final model, 2000 bootstrap replicates
# [4] = final model, Q = θ5 × (WT/69.45)^θ6
# [5] = final model, V2 = θ7 × (BSA/1.80)^θ8
# [6] = healthy adults n = 12, 1 g i.v. over 2 h, plasma, NCA, mean (CV%)
# [7] = healthy adults n = 12, 1 g i.v. over 2 h, plasma, NCA, median (IQR)
smiles,measurement,setting,value
C[C@@H](O)[C@H]1C(=O)N2C(C(=O)O)=C(S[C@@H]3CN[C@H](C(=O)N(C)C)C3)[C@H](C)[C@H]12 [meropenem],"V1, Estimates",[1]; in vivo,15.1 L
same,"V2, Estimates",[1]; in vivo,26.2 L
CN[C@H](CC(C)C)C(=O)N[C@H]1C(=O)N[C@@H](CC(N)=O)C(=O)N[C@H]2C(=O)N[C@H]3C(=O)N[C@H](C(=O)N[C@H](C(=O)O)c4cc(O)cc(O)c4-c4cc3ccc4O)[C@H](O)c3ccc(c(Cl)c3)Oc3cc2cc(c3O[C@@H]2O[C@H](CO)[C@@H](O)[C@H](O)[C@H]2O[C@H]2C[C@](C)(N)[C@H](O)[C@H](C)O2)Oc2ccc(cc2Cl)[C@H]1O [vancomycin],clearance rate per kg,"[1]; final model typical CL 8.83 L/h expressed per kg, healthy adults with normal renal function",0.127 L/h/kg
same,"θ1, typical total clearance CL, Bootstrap Median (95% CI)",[1]; [3],8.78 (8.14–9.6) L/h
same,"θ4, central volume of distribution V1, Bootstrap Median (95% CI)",[1]; [3],12.8 (3.94–19.6) L
same,"θ5, intercompartmental clearance Q, Bootstrap Median (95% CI)",[1]; [3],20.4 (16.8–28.2) L/h
same,"θ6, exponent of weight on Q, Bootstrap Median (95% CI)",[1]; [3],2.31 (1.36–3.35)
same,"θ7, peripheral volume of distribution V2, Bootstrap Median (95% CI)",[1]; [3],27.8 (25.0–31.0) L
same,"θ8, exponent of BSA on V2, Bootstrap Median (95% CI)",[1]; [3],3.13 (1.79–3.73)
same,"θ1, typical total clearance CL, Estimates","[1]; final model, CL = θ1 × (WT/69.45)^θ2 × (AGE/38.5)^θ3, 12 healthy adults",8.83 L/h
same,"θ5, intercompartmental clearance Q, Estimates",[1]; [4],20.2 L/h
same,"θ6, exponent of weight on Q, Estimates",[1]; [4],2.38
same,"θ4, central volume of distribution V1, Estimates","[1]; final model, V1 = θ4",12.9 L
same,"θ7, peripheral volume of distribution V2, Estimates",[1]; [5],27.4 L
same,"θ8, exponent of BSA on V2, Estimates",[1]; [5],3.09
same,"VC, Mean (CV%)","[1]; individual parameters from population PK, central volume of distribution, n = 12, mean (CV%)",0.211 (48.0) L/kg
same,"VC, Median (IQR)","[1]; individual parameters from population PK, central volume of distribution, n = 12, median (IQR)",0.163 (0.144–0.251) L/kg
same,"t1/2α, Mean (CV%)","[1]; individual parameters from population PK, distribution phase half-life, n = 12, mean (CV%)",0.270 (42.7) h
same,"AUCtau, Mean (CV%)","[1]; individual parameters from population PK, dose/CL, 1 g, n = 12, mean (CV%)",113 (28.9) mg·h/L
same,"AUCtau, Median (IQR)","[1]; individual parameters from population PK, dose/CL, 1 g, n = 12, median (IQR)",111 (81.9–137) mg·h/L
same,"t1/2β, Mean (CV%)","[1]; individual parameters from population PK, elimination phase half-life, n = 12, mean (CV%)",3.88 (12.5) h
same,"Vss, Mean (CV%)","[1]; individual parameters from population PK, steady-state volume of distribution, n = 12, mean (CV%)",0.611 (16.5) L/kg
same,"Vss, Median (IQR)","[1]; individual parameters from population PK, steady-state volume of distribution, n = 12, median (IQR)",0.593 (0.565–0.650) L/kg
same,"CL, Mean (CV%)","[1]; individual parameters from population PK, total clearance, healthy adults n = 12, 1 g i.v. over 2 h, mean (CV%)",0.135 (17.0) L/h/kg
same,"CL, Median (IQR)","[1]; individual parameters from population PK, total clearance, healthy adults n = 12, median (IQR)",0.131 (0.117–0.144) L/h/kg
same,"Q, Estimates",[1]; two-compartment base model,17.8 L/h
same,"Cmax, Mean (CV%)","healthy Korean adults n = 12, single 1 g i.v. infusion over 2 h, plasma, LC-MS/MS, NCA, mean (CV%)",23.4 (34.4) mg/L
same,"Cmax, Median (IQR)","healthy Korean adults n = 12, single 1 g i.v. infusion over 2 h, plasma, LC-MS/MS, NCA, median (IQR)",20.8 (17.0–27.1) mg/L
same,"AUCinf, Mean (CV%)",[6],106 (30.5) mg·h/L
same,"AUClast, Mean (CV%)",[6],78.7 (28.2) mg·h/L
same,"AUMCinf, Mean (CV%)",[6],667 (40.0) mg·h^2/L
same,"AUMClast, Mean (CV%)",[6],289 (26.7) mg·h^2/L
same,"MRTinf, Mean (CV%)",[6],5.12 (18.9) h
same,"AUCinf, Median (IQR)",[7],97.1 (76.1–140) mg·h/L
same,"AUClast, Median (IQR)",[7],73.6 (58.5–90.4) mg·h/L
same,"AUMCinf, Median (IQR)",[7],587 (464–807) mg·h^2/L
same,"AUMClast, Median (IQR)",[7],279 (217–341) mg·h^2/L
same,"MRTinf, Median (IQR)",[7],4.98 (4.46–5.60) h
same,"VssNCA, Mean (CV%)","steady-state Vd by NCA, healthy adults n = 12, 1 g i.v. over 2 h, mean (CV%)",0.730 (15.7) L/kg
same,"VssNCA, Median (IQR)","steady-state Vd by NCA, healthy adults n = 12, 1 g i.v. over 2 h, median (IQR)",0.714 (0.650–0.802) L/kg
same,"t1/2λz, Mean (CV%)","terminal elimination half-life, NCA, healthy adults n = 12, 1 g i.v. over 2 h, mean (CV%)",3.87 (21.3) h
same,"t1/2λz, Median (IQR)","terminal elimination half-life, NCA, healthy adults n = 12, 1 g i.v. over 2 h, median (IQR)",3.58 (3.34–4.25) h
same,"CLNCA, Mean (CV%)","total body clearance by NCA, healthy adults n = 12, 1 g i.v. over 2 h, mean (CV%)",0.146 (19.8) L/h/kg
same,"CLNCA, Median (IQR)","total body clearance by NCA, healthy adults n = 12, 1 g i.v. over 2 h, median (IQR)",0.135 (0.128–0.160) L/h/kg
same,"VzZNCA, Mean (CV%)","volume of distribution by NCA, healthy adults n = 12, 1 g i.v. over 2 h, mean (CV%)",0.793 (15.4) L/kg
same,"VzZNCA, Median (IQR)","volume of distribution by NCA, healthy adults n = 12, 1 g i.v. over 2 h, median (IQR)",0.806 (0.701–0.873) L/kg
same,vancomycin clearance,"[2]; ICU patients, CLCR 130 mL/min",6.20 L/h
same,vancomycin clearance,"[2]; ICU patients, CLCR 180 mL/min",8.61 L/h
same,vancomycin clearance,"[2]; critically ill ARC patients, average CLCR 180.8 mL/min",9.7 L/h
same,vancomycin clearance,"[2]; critically ill non-ARC patients, average CLCR 103.4 mL/min",6.5 L/h
same,average AUC,[2]; 139 patients with augmented renal clearance (ARC),232.9 mg·h/L
same,average AUC,[2]; 141 patients without ARC,316.2 mg·h/L
same,vancomycin clearance,[2]; patients with ARC,5.55 L/h
same,vancomycin clearance,[2]; patients with non-ARC,4.04 L/h
same,vancomycin clearance,"[2]; patients with thermal or inhalation injuries, TBSA burns 10–19%",8.2 L/h
same,vancomycin clearance,"[2]; patients with thermal or inhalation injuries, TBSA burns 20–29%",8.9 L/h
same,vancomycin clearance,"[2]; patients with thermal or inhalation injuries, TBSA burns < 10%",6.9 L/h
